Source: patent US7790921B2 (Biolink Life Sciences, Inc., priority 2007, dated 2010)
Entries after “also recorded” stand apart in the source; their conditions may differ. Read-outs that look alike come from different tables or passages of the source.

Tests used:
[1] = system: deacetylase; conditions: dose between 20 and 40 mg/kg, patients with cervical cancer; cited from earlier work
[2] = literature; cited from earlier work
[3] = system: patients with major depressive illness, bipolar disorder, or schizoaffective disorder; conditions: cited from earlier work
[4] = system: HIV-infected individuals; conditions: 250 mg twice daily, 10 weeks; cited from earlier work
[5] = Solubility in simulated gastric fluid USP; assay type: physicochemical
[6] = Solubility in simulated intestinal fluid USP; assay type: physicochemical
[7] = Hygroscopicity and storage stability of the solid; assay type: physicochemical
[8] = Solubility in methanol; conditions: product of Examples 2 and 3
[9] = Solubility of lithium valproate in water / aqueous solutions
[10] = mean duration of at least 1 year of administration

2-propylpentanoic acid magnesium salt [magnesium valproate]
effect on deacetylase activity in tumor tissues [1]: inhibits deacetylase activity

CCCC(CCC)C(=O)[O-].[Na+] [Sodium valproate]
hygroscopicity [2]: hygroscopic

CCCC(CCC)C(=O)O [Valproic acid, 2-propylpentanoic acid]
solubility in water [2]: very slightly soluble
mean change in GAS ratings ([3]; bipolar and schizoaffective patients, average of 11 to 14 months of treatment): 35.0
patients with improved mean GAS scores, bipolar disorder [3, 10]: 12 of 12
patients with improved mean GAS scores, depressed patients [3, 10]: 7 of 9
patients with improved mean GAS scores, schizoaffective states [3, 10]: 11 of 14
safety and tolerability [4]: safe and well tolerated

CCCC(CCC)C(=O)O [divalproex sodium]
hygroscopicity [2]: not hygroscopic

CCCC(CCC)C(=O)[O-].[Li+] [lithium valproate]
solubility in simulated gastric fluid USP [5]: soluble
solubility in simulated intestinal fluid USP [6]: soluble
hygroscopicity [7]: not hygroscopic or deliquescent; also recorded: non-hygroscopic
stability during storage [7]: stable during storage
solubility in methanol [8]: very soluble
solubility of lithium valproate in water ([9]; portions added to 1 mL water until undissolved): about 250 mg of lithium valproate per mL of water
solubility in water ([9]; product of Examples 2 and 3): very soluble
pH of aqueous solutions ([9]; water or aqueous solutions): near neutral pH
